Test results published in patent US20220354835A1, “COMPOUNDS FOR DEGRADING TAU PROTEIN AGGREGATES AND USES THEREOF” (Aprinoia Therapeutics Limited, priority 2019, published 2022).

Tests used:
[1] = target: T1, Tau aggregates in P301L-Tau-FL-GFP HEK293 cells (Homo sapiens, UniProt P10636, P618L); experiment: Tau degradation assay (APNmAb005 ELISA-based Tau aggregation assay); format: cell-based; settings: 1 μM of compound, 24 hours, P301L-Tau-FL-GFP HEK293 cells seeded with rTg4510 brain lysate; read-out: Activity (reduction of tau aggregates)
T1 construct: express full-length human tau T40 (2N4R) carrying the P301L mutation with a GFP tag; expressed in transfected cells
T1 sequence (P10636 1-441 isoform P10636-8 P301L): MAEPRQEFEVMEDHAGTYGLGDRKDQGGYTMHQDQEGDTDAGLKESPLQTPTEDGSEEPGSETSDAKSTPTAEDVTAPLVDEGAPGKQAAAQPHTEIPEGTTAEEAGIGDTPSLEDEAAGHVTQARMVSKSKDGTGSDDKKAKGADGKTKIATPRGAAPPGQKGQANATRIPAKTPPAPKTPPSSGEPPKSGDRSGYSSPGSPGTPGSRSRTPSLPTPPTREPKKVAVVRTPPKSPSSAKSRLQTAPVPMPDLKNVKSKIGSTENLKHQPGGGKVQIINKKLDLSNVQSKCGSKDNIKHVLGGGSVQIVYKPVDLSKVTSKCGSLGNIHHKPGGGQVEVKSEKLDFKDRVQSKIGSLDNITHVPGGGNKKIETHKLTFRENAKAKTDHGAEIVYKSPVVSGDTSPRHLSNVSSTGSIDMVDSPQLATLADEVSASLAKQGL
Protocol: (A). Cell-based model of Tau inclusion formation: Six month old rTg4510 mouse brain lysates were used as the source of tau seeds, prepared as described in Example 26 above. P301L-Tau-FL-GFP HEK293 cells represent HEK293 cells express full-length human tau T40 (2N4R) carrying the P301L mutation with a GFP tag (P301L-Tau-FL-GFP). 1×10^6 of P301L-Tau-FL-GFP HEK293 cells were cultured on a 6-well plate in culture medium containing DMEM/F-12 (Gibco) supplemented with 10% fetal bovine serum (FBS) (Gibco), 1% Penicillin-Streptomycin (Gibco) and 0.5 mg/ml geneticin (Thermo Fisher Scientific) for 24 hours to reach 70-90% confluency, indicating the cells were ready for transfection. 50 μg of 6-month-old rTg4510 mouse brain lysate was diluted in 400 μL of serum free medium and mixed with 16 μL of lipofectamine 3000 reagent (Thermo Fisher Scientific) diluted in 400 μl of serum free medium. A solution mixture of rTg4510 brain lysate and lipofectamine 3000 was incubated at room temperature for 25 min. The culture media were removed, and then a solution mixture of rTg4510 lysate and lipofectamine 3000 was added to the cells for transfection. The solution mixture was incubated at room temperature for five hours, followed by medium change to 10% fetal bovine serum (FBS). After two-day incubation, Tau aggregates (Tau spots) were induced and images were acquired by ImageXpress Micro Confocal high-content imaging system (Molecular Devices) as described in Example 52 above. Analysis was performed by two customized modules in MetaXpress software (Molecular Devices) for aggregated tau analysis. Output included cell numbers, numbers of tau spots, average intensity of tau spots, and average size of tau spots.
(B). Compound treatment: 100 μL of 3×10^4 cells comprising Tau aggregates, prepared as described above in step (A), were plated on a 96-well plate coated with poly-D-lysine (BD Biosciences) and cultured for 24 hours. Compounds to be tested were dissolved in culture medium containing 0.1% DMSO. Each of test compounds in the concentration of 1, 0.2 and 0.04 μM was added to the cells comprising Tau aggregates and incubated at 37° C. for 24 hours. After that, culture medium was removed, cells were washed with PBS solution and then lysed using 30 μL of lysis buffer (PBS containing 0.3% Triton X-100 and 400 mM NaCl) for one hour at 4° C., and then cell lysate was diluted by 170 μl of PBS containing 400 mM NaCl. Cell lysate was filtrated by a […] filtration plate (Pall) and applied for Tau aggregation assay.
(C). Control cell lysate: control cell lysate was collected from non-seeded cells.
(D). ELISA-based Tau aggregation assay: APNmAb005 ELISA kit for Tau aggregation assay was designed and developed to detect abnormal tau aggregates in buffered solution or cell lysate by using anti-Tau APNmab005 as capture and detection antibody. This antibody is a highly specific antibody bound to human tau aggregates accumulated in mammalian cells. APNmAb005 is recited in PCT Patent Application No. PCT/M2020/057415, filed Aug. 5, 2020, which is incorporated herein by reference.
0.15 μg of APNmAb005 in 100 mM sodium carbonate buffer (pH 9.6) was coated on a high-binding polystyrene 96-well microplate (Greiner Bio-One) at 4° C. overnight. The microplate was washed with PBS followed by treatment with Intercept (PBS) blocking buffer (LI-COR) at room temperature for 2 hours. After that, the microplate was washed with PBS, and then the cell lysate with compound treatment, prepared as described above in step (C), was added into each well of the microplate and incubated at room temperature for 2 hours. The microplate was washed with PBS and then incubated with HRP-conjugated secondary antibody APNmAb005 at room temperature for 3 hours. HRP-conjugated secondary antibody APNmAb005 was prepared using HRP conjugation kit (Abcam,ab102890). The microplate was then washed with PBS and incubated with 100 μL of horseradish peroxidase (HRP) substrate at room temperature. […]

[2] = target: T2, heparin-induced aggregated tau (aTau), full-length 2N4R human Tau (Homo sapiens, UniProt P10636); experiment: In vitro fluorometric aTau binding assay; settings: 0.04 μM aTau, serially diluted compound 10 to 0.00017 μM, 37° C. 1 hour, fluorescence
T2 construct: transformed with a full-length 2N4R tau expression plasmid; made in house; host or cells: E. coli BL21
T2 sequence (P10636 1-441 isoform P10636-8): as the sequence (P10636 1-441 isoform P10636-8 P301L) above, with L301P counted along it
Protocol: (A) Expression and purification of human Tau: 1 mM IPTG (Sangon Biotech, Cat. No A100487) was used to induce production of tau by bacteria (BL21, Invitrogen, Cat. No C600003) transformed with a full-length 2N4R tau expression plasmid. After 3 hours, cell pellet was resuspended in lysis buffer (100 mM PIPES, 1 mM EGTA, 1 mM MgSO4, pH 6.8) and lysed by sonication followed by centrifugation (15,000 rpm, 15 min, 4° C.). The supernatant was then placed in a boiling water bath for 20 min, followed by centrifugation (15,000 rpm, 15 min, 4° C.). Supernatant was loaded onto a Q-Sepharose® Fast Flow column (GE healthcare, Cat. No 17-0510-01), the flow-through fraction was loaded onto an SP-Sepharose® Fast Flow column (GE healthcare, Cat. No 17-0729-01), and tau protein was eluted with elution buffer (100 mM PIPES, 1 M NaCl, 1 mM EGTA, 1 mM MgSO4, 0.2 M NaCl, pH 6.8). Collected fractions of tau-containing eluates were pooled, concentrated and dialyzed against HEPES buffer (25 mM HEPES, 0.1 mM EDTA, 0.5 mM DTT, 100 mM NaCl, pH 7.2) and stored at −80° C. in small aliquots until use. Protein concentration was determined by UV absorption.
(B) Preparation of heparin-induced aggregated tau (aTau): 2 μM of tau prepared in 30 mM Tris-HCl, pH 7.5 buffer was incubated in tube with 15 μM heparin (Sigma, Cat. No H3149) at 37° C. for 24 hours.
(D) In vitro fluorometric aTau binding assays: 2 μM aTau was diluted to 0.04 μM with 30 mM Tris-HCl (pH 6.8), and then incubated with serially diluted compound (three-fold serial dilutions, from 10 to 0.00017 μM) in a 96-well plate (Corning, Cat. No 3573) at 37° C. for 1 hour. Fluorescence intensity (excitation/emission=370/500 nm) of APN-0729 was read by microplate spectrometer (EnSpire 2300, PerkinElmer). Compound Kd values were calculated using the following equation: Y=Bmax* X (Kd+X), where X is the concentration of compound; Y is the fluorescence signal of (compound+aTau)−(compound+DMSO); and Bmax is the maximum signal.

Molecule `CN(C)c1ccc(-c2ccc(-c3nc4ccc(NCCOCCOc5ccc6c(c5)CN(C5CCC(=O)NC5=O)C6=O)cc4s3)cc2)cn1` (centres unmarked) [Compound 160313, 3-[6-[2-[2-[[2-[4-[6-(dimethylamino)pyridin-3-yl]phenyl]-1,3-benzothiazol-6-yl]amino]ethoxy]ethoxy]-3-oxo-1H-isoindol-2-yl]piperidine-2,6-dione] has an inhibition at 1 µM [1] of less than 10% and a Kd [2] of 80 nM.
